Test results taken from US8722663B2, “Di-substituted pyridine derivatives as anticancers” (Otsuka Pharmaceutical Co., Ltd., priority 2010, dated 2014).
Structures can show the parent of a compound that is named as a salt.

Tests used:
[1] = test system: human prostate (adenocarcinoma) cell line (PC-3); assay: Growth inhibition of PC-3 cells, WST-8 assay; format: cell-based; conditions: 120 h, 5 days with test compound
Method: (§1) The growth inhibition on a bicalutamide resistant human prostate cancer cell line established from LNCaP.FGC (LNCaP-Bic) (Hobisch A, et al. Prostate. 2006; 66(4):413-20.) was determined by a WST-8 assay according to the method of Singh A K, et al. (Cancer Lett. 1996 Oct. 1; 107(1): 109-15.). In this method, LNCaP-Bic cells were seeded in RPMI 1640 medium containing 10% fetal bovine serum in a 96-well microplate and incubated at 37° C. for 24 hours in the presence of 5% carbon dioxide. Then, the test compound was added and the cells were incubated for another 5 days. After incubation, a 15-μL volume of WST-8 (2-(2-methoxy-4-nitrophenyl)-3-(4-nitrophenyl)-5-(2,4-[…])-2H-tetrazolium, monosodium salt) was added. After the incubation for the time, the color reaction was stopped by adding 15 μL of 1% SDS (sodium dodecyl sulfate) solution and the optical density was determined at the measurement wavelength of 450 nm and the reference wavelength of 630 nm, and the difference was calculated. The cell growth activity in each well was defined as the value determined by subtracting the OD in the control well not containing cells (the difference in absorbance between 450 nm and 630 nm) from that in the test well.
(§2) The 50% inhibitory concentration (IC50 (nM)) of the test compound was determined by comparing the cell growth activity in the well containing the test compound with that of the control not containing the test compound.
The growth inhibition on a human prostate (adenocarcinoma) cell line (PC-3) (van Bokhoven A, et al. Prostate. 2003; 57(3):205-25.) was also determined by the above method.

[2] = test system: human prostate (carcinoma) cell line (DU 145); assay: Growth inhibition of DU 145 cells, WST-8 assay; format: cell-based; conditions: 120 h, 5 days with test compound
Method: as §1, §2
The growth inhibition on a human prostate (carcinoma) cell line (DU 145) (van Bokhoven A, et al. Prostate. 2003; 57(3):205-25.) was also determined by the above method.

[3] = test system: human prostate (adenocarcinoma) cell line (VcaP); assay: Growth inhibition of VcaP cells, WST-8 assay; format: cell-based; conditions: 120 h, 5 days with test compound
Method: as §1, §2
The growth inhibition on a human prostate (adenocarcinoma) cell line (VcaP) (Korenchuk S, et al. In Vivo. 2001; 15(2):163-8.) was also determined by the above method.

[4] = test system: bicalutamide resistant human prostate cancer cell line established from LNCaP.FGC (LNCaP-Bic); assay: Growth inhibition of LNCaP-Bic cells, WST-8 assay; format: cell-based; conditions: 120 h, 5 days with test compound
Method: as §1, §2

[5] = test system: human prostate (carcinoma) cell line (LNCaP.FGC); assay: Growth inhibition of LNCaP.FGC cells, WST-8 assay; format: cell-based; conditions: 120 h, 5 days with test compound
Method: as §1, §2
The growth inhibition on a human prostate (carcinoma) cell line (LNCaP.FGC) (van Bokhoven A, et al. Prostate. 2003; 57(3):205-25.) was also determined by the above method.

IC50 [1] [nM] | IC50 [2] [nM] | IC50 [3] [nM] | IC50 [4] [nM] | IC50 [5] [nM] | melting point [°C] | SMILES
< 10 | < 10 | < 10 | < 10 | < 10 |  | Cc1ccc(COc2ccc(Oc3c(C)cc(/C=C/C(=O)N4CCN(Cc5ccc(CCOc6ccc(F)cc6)cc5)[C@@H](C)C4)cc3Cl)nc2)cc1 [Example 392, (E)-3-[3-chloro-5-methyl-4-({5-[(4-methylbenzyl)oxy]pyridin-2-yl}oxy)phenyl]-1-[(3S)-4-{4-[2-(4-fluorophenoxy)ethyl]benzyl}-3-methylpiperazin-1-yl]prop-2-en-1-one]
< 10 | < 10 | < 10 | < 10 | < 10 |  | Cc1cc(/C=C/C(=O)N2CCN(Cc3ccc(CCOc4ccc(Cl)cc4)cc3)CC2)cc(Cl)c1Oc1ccc(OCc2ccccc2Cl)cn1 [Example 466, (E)-3-[3-Chloro-4-({5-[(2-chlorobenzyl)oxy]pyridin-2-yl}oxy)-5-methylphenyl]-1-(4-{4-[2-(4-chlorophenoxy)ethyl]benzyl}piperazin-1-yl)prop-2-en-1-one hydrochloride]
< 10 | < 10 | < 10 | < 10 | < 10 | 199.2 to 200.9 | Cc1cc(/C=C/C(=O)N2CCN(Cc3ccc(CCOc4ccc(C(C)C)cc4)cc3)CC2)cc(C)c1Oc1ccc(OCc2cncs2)cn1.Cl [Example 595, (E)-3-(3,5-Dimethyl-4-{[5-(1,3-thiazol-5-ylmethoxy)pyridin-2-yl]oxy}phenyl)-1-[4-(4-{2-[4-(propan-2-yl)phenoxy]ethyl}benzyl)piperazin-1-yl]prop-2-en-1-one hydrochloride]
< 10 | < 10 | < 10 | < 10 | < 10 | 224 to 224.5 | Cc1cc(/C=C/C(=O)N2CCN(Cc3ccc(CCOc4ccc(F)cc4)cc3)CC2)cc(Cl)c1Oc1ccc(OCc2ccccc2F)cn1.Cl [Example 447, (E)-3-[3-Chloro-4-({5-[(2-fluorobenzyl)oxy]pyridin-2-yl}oxy)-5-methylphenyl]-1-(4-{4-[2-(4-fluorophenoxy)ethyl]benzyl}piperazin-1-yl)prop-2-en-1-one hydrochloride]
< 10 | < 10 | < 10 | < 10 | < 10 | 190.4 to 191.8 | CCOc1cccc(OCCc2ccc(CN3CCN(C(=O)/C=C/c4cc(C)c(Oc5ccc(OCc6cncs6)cn5)c(C)c4)CC3)cc2)c1.Cl [Example 594, (E)-3-(3,5-Dimethyl-4-{[5-(1,3-thiazol-5-ylmethoxy)pyridin-2-yl]oxy}phenyl)-1-(4-{4-[2-(3-ethoxyphenoxy)ethyl]benzyl}piperazin-1-yl)prop-2-en-1-one hydrochloride]
< 10 | < 10 | < 10 | < 10 | < 10 | 219.5 to 222.3 | COc1ccc(NCCc2ccc(CN3CCN(C(=O)/C=C/c4ccc(Oc5ccc(OCc6ccc(C#N)cc6)cn5)c(Cl)c4)CC3)cc2)cc1.Cl.Cl [Example 669, 4-({[6-(2-Chloro-4-{(E)-3-[4-(4-{2-[(4-methoxyphenyl)amino]ethyl}benzyl)piperazin-1-yl]-3-oxoprop-1-en-1-yl}phenoxy)pyridin-3-yl]oxy}methyl)benzonitrile dihydrochloride]
< 10 | < 10 | < 10 | < 10 | < 10 | 145 to 145.8 | Cc1cc(/C=C/C(=O)N2CCN(Cc3ccc(/C=C/COc4ccc(Br)cn4)cc3)CC2)cc(Cl)c1Oc1ccc(OCc2ccc(C#N)cc2)cn1.Cl [Example 657, 4-({[6-(4-{(1E)-3-[4-(4-{(1E)-3-[(5-Bromopyridin-2-yl)oxy]prop-1-en-1-yl}benzyl)piperazin-1-yl]-3-oxoprop-1-en-1-yl}-2-chloro-6-methylphenoxy)pyridin-3-yl]oxy}methyl)benzonitrile hydrochloride]
< 10 | < 10 | < 10 | < 10 | < 10 |  | Cc1ccc(OCCc2ccc(CN3CCN(C(=O)/C=C/c4cc(C)c(Oc5ccc(OCc6ccccc6F)cn5)c(Cl)c4)CC3)cc2)cc1 [Example 451, (E)-3-[3-Chloro-4-({5-[(2-fluorobenzyl)oxy]pyridin-2-yl}oxy)-5-methylphenyl]-1-(4-{4-[2-(4-methylphenoxy)ethyl]benzyl}piperazin-1-yl)prop-2-en-1-one hydrochloride]
< 10 | < 10 | < 10 | < 10 | < 10 |  | Cc1ccc(OCCc2ccc(CN3CCN(C(=O)/C=C/c4cc(C)c(Oc5ccc(OCc6cscn6)cn5)c(C)c4)CC3)cc2)cc1 [Example 601, (E)-3-(3,5-Dimethyl-4-{[5-(1,3-thiazol-4-ylmethoxy)pyridin-2-yl]oxy}phenyl)-1-(4-{4-[2-(4-methylphenoxy)ethyl]benzyl}piperazin-1-yl)prop-2-en-1-one hydrochloride]
< 10 | < 10 | < 10 | < 10 | < 10 |  | CC(C)c1ccc(OCCc2ccc(CN3CCN(C(=O)/C=C/c4ccc(Oc5ccc(OCc6ccc(C#N)cc6)cn5)c(F)c4)CC3)cc2)cc1 [Example 593, 4-({[6-(2-Fluoro-4-{(E)-3-oxo-3-[4-(4-{2-[4-(propan-2-yl)phenoxy]ethyl}benzyl)piperazin-1-yl]prop-1-en-1-yl}phenoxy)pyridin-3-yl]oxy}methyl)benzonitrile hydrochloride]
< 10 | < 10 | < 10 | < 10 | < 10 | 193 to 194.8 | Cc1ccc(OCCCc2ccc(CN3CCN(C(=O)/C=C/c4cc(C)c(Oc5ccc(OCc6ccc(C#N)cc6)cn5)c(Cl)c4)CC3)cc2)cc1.Cl [Example 621, 4-{[(6-{2-Chloro-6-methyl-4-[(E)-3-(4-{4-[3-(4-methylphenoxy)propyl]benzyl}piperazin-1-yl)-3-oxoprop-1-en-1-yl]phenoxy}pyridin-3-yl)oxy]methyl}benzonitrile hydrochloride]
< 10 | < 10 | < 10 | < 10 | < 10 | 130 to 132 | COc1ccc(COc2ccc(Oc3c(C)cc(/C=C/C(=O)N4CCN(Cc5ccc(/C=C/COc6ccc(C)cc6)cc5)CC4)cc3C)nc2)cc1 [Example 1, (2E)-3-[4-({5-[(4-methoxybenzyl)oxy]pyridin-2-yl}oxy)-3,5-dimethylphenyl]-1-(4-{4-[(1E)-3-(4-methylphenoxy)prop-1-en-1-yl]benzyl}piperazin-1-yl)prop-2-en-1-one]
< 10 | < 10 | < 10 | < 10 | < 10 | 178.2 to 178.9 | Cc1cc(/C=C/C(=O)N2CCN(Cc3ccc(CCOc4ccc(C(C)C)cc4)cc3)CC2)ccc1Oc1ccc(OCc2ccccc2Cl)cn1.Cl [Example 507, (E)-3-[4-({5-[(2-Chlorobenzyl)oxy]pyridin-2-yl}oxy)-3-methylphenyl]-1-[4-(4-{2-[4-(propan-2-yl)phenoxy]ethyl}benzyl)piperazin-1-yl]prop-2-en-1-one hydrochloride]
< 10 | < 10 | < 10 | < 10 | < 10 |  | Cc1ccc(OCCc2ccc(CN3CCN(C(=O)/C=C/c4cc(C)c(Oc5ccc(OCc6ccccc6Cl)cn5)c(Cl)c4)CC3)cc2)cc1 [Example 452, (E)-3-[3-Chloro-4-({5-[(2-chlorobenzyl)oxy]pyridin-2-yl}oxy)-5-methylphenyl]-1-(4-{4-[2-(4-methylphenoxy)ethyl]benzyl}piperazin-1-yl)prop-2-en-1-one hydrochloride]
< 10 | < 10 | < 10 | < 10 | < 10 |  | COc1ccc(COc2ccc(Oc3c(C)cc(/C=C/C(=O)N4CCN(Cc5ccc(CCOc6ccc(C)cc6)cc5C)CC4)cc3C)nc2)cc1 [Example 611, (E)-3-[4-({5-[(4-Methoxybenzyl)oxy]pyridin-2-yl}oxy)-3,5-dimethylphenyl]-1-(4-{2-methyl-4-[2-(4-methylphenoxy)ethyl]benzyl}piperazin-1-yl)prop-2-en-1-one hydrochloride]
